Data: patent publication US6133279A, “Therapeutic agents for renal diseases and organ preservatives” (Chugai Seiyaku Kabushiki Kaisha, priority 1996, dated 2000)
Read-outs that look alike come from different tables or passages of the source.

Tested on: porcine kidney-derived LLC-PK1 cells
Assay: Protective effect against oxidized LDL-induced injury of porcine kidney-derived LLC-PK1 cells (1)
Format: cell-based
Settings: Sus scrofa, LLC-PK1, 6 h, mean ± standard deviation, read-out: Cytoprotection rate (%)
Procedure: For the purpose of evaluating in vitro cytoprotective effect of the compounds of the present invention, a cytoprotective study was performed using porcine kidney-derived LLC-PK1 cells (ATCC-CRL-13921) injured by oxidized low-density lipoprotein (oxidized LDL).
Oxidized LDL was prepared by incubating 1 mg/ml of rabbit LDL in PBS (-) in the presence of 10 μM CuSO4 at 37° C. for 24 hours. Cell culture was carried out by plating 1.25×10^4 cells/250 μl/well on a 48-well plate containing M199 medium containing 3% FBS. Test compounds were dissolved or suspended in ethanol and added to the wells in an amount of 1.25 μl/well to a concentration of 0.1, 1 or 10 μM in each well. After 16 hours or immediately after the addition of the compounds, oxidized LDL was added to the wells. Probucol, α-tocopherol and Trolox which is a water-soluble analogue of α-tocopherol were used as reference control compounds. Oxidized LDL was diluted twice with saline and then added to the wells in an amount of 62.5 μl/well to a concentration of 100 μg/ml and the cells were cultured for 6 hours after addition of the oxidized LDL. Then, 162.5 μl/well of the culture medium were collected and measured for the lactate dehydrogenase (LDH) level (LD-L: SIGNA DIAGNOSTICS) having leaked into the medium.
The magnitude of cytoprotective effect was expressed as the cytoprotection rate which was determined by calculating the data assuming that the magnitude in wells containing oxidized LDL is 0% and that the magnitude in wells containing saline is 100%.

[1] = compound added 16 hours before adding oxidized LDL
[2] = compound added immediately before adding oxidized LDL

Compound: CCCCCC1(CCCCC)Cc2c(cc(C(C)(C)C)c(O)c2C(C)(C)C)O1 [Example 36, 4,6-Di-t-butyl-2,2-di-n-pentyl-5-hydroxy-2,3-dihydrobenzofuran]
- inhibition at 0.1 µM [1]: -1 ± 7.4%
- inhibition at 0.1 µM [2]: -3.2 ± 1.1%
- inhibition at 1 µM [1]: 92.2 ± 3.7%
- inhibition at 1 µM [2]: 0.6%
- inhibition at 10 µM [1]: 97.7 ± 1.1%
- inhibition at 10 µM [2]: 78.8 ± 3.6%
